# Measured values reported in patent publication US20250263370A1 (Tay Therapeutics Limited, priority 2022, published 2025).
# “And” between values parts separate entries of the source, which are not always exact repeats. Identical values can stand only once. “Also recorded” adds a separate entry of the source.
# System: collagen-induced arthritis
# Assay: Collagen-induced arthritis (CIA) model in rats: body weight, paw volume, clinical scores, clinical observations
# Conditions: CIA rats
# [1] = 10 mg/kg twice daily P.O. (group 6), day 21
# [2] = 30 mg/kg twice daily P.O. (group 7)
# [3] = 30 mg/kg twice daily P.O. (group 7), day 15
# [4] = 30 mg/kg twice daily P.O. (group 7), day 19
# [5] = 30 mg/kg twice daily P.O. (group 7), day 21
smiles,measurement,setting,value
"CNC(=O)c1[nH]c(C(=O)NC2CCC2)cc1O[C@@H](C)c1ccccc1 (stereo in doubt) [Example 101, N^5-cyclobutyl-N^2-methyl-3-(1-phenylethoxy)-1H-pyrrole-2,5-dicarboxamide]",animals with a score of 2 on one hind limb and no score on the other hind limb,[1],1/8
same,animals with scores of 1 or 2 on both hind limbs,[1],2/8
same,animals with scores of 3 on each hind limb,[1],3/8
same,animals with scores of 4 on one or more hind limbs,"10 mg/kg twice daily P.O. (group 6), days 19 and 21",2/8
same,paw volume increase at plateau relative to day 0,"10 mg/kg twice daily P.O. (group 6), plateau at day 18",approximately 50%
same,Average animal paw volume percent change,"10 mg/kg, Day 0, left hind paw (L)",0.00%
same,Animal paw volume Day 0 L,"10 mg/kg, Day 0, left paw, individual animals",1.39 mL and 1.26 mL (2×) and 1.29 mL (2×) and 1.31 mL and 1.30 mL and 1.37 mL
same,Average animal paw volume percent change,"10 mg/kg, Day 0, right hind paw (R)",0.00%
same,Animal paw volume Day 0 R,"10 mg/kg, Day 0, right paw, individual animals",1.41 mL and 1.26 mL (2×) and 1.30 mL (3×) and 1.31 mL and 1.37 mL
same,Average animal paw volume percent change,"10 mg/kg, Day 6, left hind paw (L)",1.14%
same,Animal paw volume Day 6 L,"10 mg/kg, Day 6, left paw, individual animals",1.41 mL and 1.23 mL and 1.31 mL and 1.33 mL and 1.34 mL and 1.35 mL and 1.37 mL and 1.26 mL
same,Average animal paw volume percent change,"10 mg/kg, Day 6, right hind paw (R)",0.87%
same,Animal paw volume Day 6 R,"10 mg/kg, Day 6, right paw, individual animals",1.41 mL and 1.24 mL and 1.32 mL and 1.33 mL and 1.34 mL (2×) and 1.36 mL and 1.26 mL
same,Average animal paw volume percent change,"10 mg/kg, Day 12, left hind paw (L)",7.61%
same,Animal paw volume Day 12 L,"10 mg/kg, Day 12, left paw, individual animals",1.52 mL and 1.26 mL and 1.43 mL and 1.63 mL and 1.34 mL and 1.44 mL and 1.39 mL and 1.27 mL
same,Average animal paw volume percent change,"10 mg/kg, Day 12, right hind paw (R)",7.98%
same,Animal paw volume Day 12 R,"10 mg/kg, Day 12, right paw, individual animals",1.44 mL and 1.27 mL and 1.88 mL and 1.33 mL and 1.35 mL and 1.38 mL and 1.39 mL and 1.29 mL
same,Average animal paw volume percent change,"10 mg/kg, Day 13, left hind paw (L)",16.61%
same,Animal paw volume Day 13 L,"10 mg/kg, Day 13, left paw, individual animals",1.71 mL and 1.32 mL and 1.81 mL and 1.83 mL and 1.35 mL and 1.45 mL and 1.44 mL and 1.31 mL
same,Average animal paw volume percent change,"10 mg/kg, Day 13, right hind paw (R)",10.89%
same,Animal paw volume Day 13 R,"10 mg/kg, Day 13, right paw, individual animals",1.54 mL and 1.32 mL and 1.90 mL and 1.37 mL (2×) and 1.41 mL and 1.44 mL and 1.29 mL
same,Average animal paw volume percent change,"10 mg/kg, Day 14, left hind paw (L)",30.15%
same,Animal paw volume Day 14 L,"10 mg/kg, Day 14, left paw, individual animals",2.00 mL and 1.50 mL and 2.07 mL and 2.45 mL and 1.39 mL and 1.45 mL and 1.44 mL and 1.31 mL
same,Average animal paw volume percent change,"10 mg/kg, Day 14, right hind paw (R)",21.45%
same,Animal paw volume Day 14 R,"10 mg/kg, Day 14, right paw, individual animals",1.62 mL and 1.68 mL and 2.23 mL and 1.67 mL and 1.37 mL and 1.43 mL and 1.46 mL and 1.28 mL
same,Average animal paw volume percent change,"10 mg/kg, Day 15, left hind paw (L)",40.41%
same,Animal paw volume Day 15 L,"10 mg/kg, Day 15, left paw, individual animals",2.13 mL and 1.73 mL and 2.33 mL and 2.49 mL and 1.41 mL and 1.60 mL and 1.49 mL and 1.51 mL
same,Average animal paw volume percent change,"10 mg/kg, Day 15, right hind paw (R)",34.05%
same,Animal paw volume Day 15 R,"10 mg/kg, Day 15, right paw, individual animals",1.93 mL and 1.83 mL and 2.53 mL and 1.91 mL and 1.38 mL and 1.45 mL and 1.51 mL and 1.52 mL
same,Average animal paw volume percent change,"10 mg/kg, Day 18, left hind paw (L)",59.21%
same,Animal paw volume Day 18 L,"10 mg/kg, Day 18, left paw, individual animals",2.40 mL and 2.04 mL and 2.54 mL and 2.70 mL and 1.51 mL (2×) and 2.30 mL and 1.64 mL
same,Average animal paw volume percent change,"10 mg/kg, Day 18, right hind paw (R)",54.15%
same,Animal paw volume Day 18 R,"10 mg/kg, Day 18, right paw, individual animals",2.23 mL and 2.08 mL and 2.52 mL and 2.74 mL and 1.59 mL and 1.91 mL and 1.58 mL and 1.51 mL
same,Average animal paw volume percent change,"10 mg/kg, Day 19, left hind paw (L)",58.75%
same,Animal paw volume Day 19 L,"10 mg/kg, Day 19, left paw, individual animals",2.38 mL and 2.04 mL and 2.49 mL and 2.64 mL and 1.48 mL and 2.32 mL and 1.65 mL and 1.60 mL
same,Average animal paw volume percent change,"10 mg/kg, Day 19, right hind paw (R)",54.16%
same,Animal paw volume Day 19 R,"10 mg/kg, Day 19, right paw, individual animals",2.36 mL and 2.05 mL and 2.47 mL and 2.71 mL and 1.58 mL and 1.87 mL and 1.57 mL and 1.56 mL
same,Average animal paw volume percent change,"10 mg/kg, Day 21, left hind paw (L)",60.25%
same,Animal paw volume Day 21 L,"10 mg/kg, Day 21, left paw, individual animals",2.38 mL and 2.03 mL and 2.48 mL and 2.64 mL and 1.48 mL and 2.33 mL and 1.83 mL and 1.60 mL
same,Average animal paw volume percent change,"10 mg/kg, Day 21, right hind paw (R)",59.20%
same,Animal paw volume Day 21 R,"10 mg/kg, Day 21, right paw, individual animals",2.35 mL and 2.04 mL and 2.46 mL and 2.68 mL and 1.58 mL and 2.15 mL and 1.82 mL and 1.62 mL
same,animals that never showed signs of disease,[2],one animal
same,average clinical score relative to CIA + vehicle (group 2),[2],"significantly decreased (p<0.01) relative to animals in group 2 on days 18, 19 and 21"
same,average overall clinical score at plateau,[2],4
same,day on which paw volume noticeably increased,[2],~19 days
same,effect on hind paw volume,[2],most effective dose at preventing an increase in paw volume; also recorded: Paw volume increases were delayed; also recorded: proved most effective
same,paw volume increase at plateau relative to day 0,[2],approximately 35%
same,paw volume relative to CIA + vehicle (group 2),[2],"significantly reduced relative to group 2 at day 15 (left paw, p<0.05) and days 18, 19, 21 (both paws, p<0.01)"
same,animals exhibiting signs of disease,"30 mg/kg twice daily P.O. (group 7), day 12",One animal
same,animals exhibiting disease,[3],4/8
same,animals with a score of 2 on one hind limb,[3],2/8
same,animals exhibiting disease,"30 mg/kg twice daily P.O. (group 7), day 16",5/8
same,animals with scores of 2 or 3 on both hind limbs,"30 mg/kg twice daily P.O. (group 7), day 18",3/8
same,animals exhibiting disease,[4],7/8
same,animals with a score of 2 or 3 on both hind limbs,[4],4/8
same,animals with a clinical score of 3 on both hind limbs,[5],4/8
same,animals with a score of 1 on one or both hind limbs,[5],3/8
same,animals with no clinical score,[5],1/8
same,Average animal paw volume percent change,"30 mg/kg, Day 0, left hind paw (L)",0.00%
